# Reference: US20040265808A1, “Genes involved in osteogenesis, and methods of use” (priority 2001, published 2004)
# B1: 7 (nucleic acid, listed as Mus musculus)
# chain: AATCTAGAATGAAGTCCTGCGGCCTTTTACCTTTCACGGTGCTCCTTGCTCTGGGGATCCTGGCACCCTGGACTGTGGAAGGAGGCAAAAATGATGCTATCAAAATCGGAGCCTGCCCTGCTAAAAAGCCTGCCCAGTGCCTTAAGCTTGAGAAGCCACAATGCCGTACTGACTGGGAGTGCCCGGGAAAGCAGAGGTGCTGCCAAGATGCTTGCGGTTCCAAGTGCGTGAATCCTGTTCCCATTCGCAAACCAGTGTGGAGGAAGCCTGGGAGGTGCGTCAAAACTCAGGCAAGATGTATGATGCTTAACCCTCCCAATGTCTGCCAGAGGGACGGGCAGTGTGACGGCAAATACAAGTGCTGTGAGGGTATATGTGGGAAAGTCTGCCTGCCCCCGATGACTAGTAA
# B2: 24 (nucleic acid, listed as Mus musculus)
# chain: CGATCGATATGGCCAGCCCGCTGCGCTCCTTGCTGTTCCTGCTGGCCGTCCTGGCCGTGGCCTGGGCGGCGACCCCAAAACAAGGCCCGCGAATGTTGGGAGCCCCGGAGGAGGCAGATGCCAATGAGGAAGGCGTGCGGCGAGCGTTGGACTTCGCTGTGAGCGAGTACAACAAGGGCAGCAACGATGCGTACCACAGCCGCGCCATACAGGTGGTGAGAGCTCGTAAGCAGCTCGTGGCTGGAGTGAACTATTTTTTGGATGTGGAGATGGGCCGAACTACATGTACCAAGTCCCAGACAAATTTGACTGACTGTCCTTTCCATGACCAGCCCCATCTGATGAGGAAGGCACTCTGCTCCTTCCAGATCTACAGCGTGCCCTGGAAAGGCACACACTCCCTGACAAAATTCAGCTGCAAAAATGCCGCGGCCGCTT
# B3: 67 (nucleic acid, listed as Mus musculus)
# chain: AATCTAGAATGGCGTTGACTGCGGATGTGGCAGGACCAGCACCTTGGGGCTTCCGAATTAGCGGGGGCAGAGATTTCCACACACCCATCATTGTGACCAAGGTCACAGAGCGGGGCAAGGCTGAAGCAGCTGATCTCCGGCCTGGCGACATCATTGTGGCCATCAATGGACAGAGTGCAGAGAACATGCTACACGCGGAGGCCCAAAGCAAGATCCGACAGAGCGCCTCACCCCTAAGACTGCAGCTGGACCGGTCCCAAACAGCCTCTCCTGGGCAGACCAATGGGGAGGGCTCCTTGGAAGTGCTGGCAACCAGATTCCAGGGCTCCCTGAGGACACACCGTGACAGCCAGTCTTCCCAGAGGTCTGCCTGCTTCAGCCCAGTCTCTCTCAGCCCCAGGCCTTGCAGCCCCTTCTCCACCCCACCCCCTACCAGCCCAGTTGCCCTTTCTAAAGAGGATATGATTGGCTGTAGTTTCCAGAGTCTGACACACTCTCCAGGCCTTGCTGCTGCTCACCACTTGACCTACCCTGGCCACCCCACCAGCCAACAGGCCGGCCACAGCAGCCCAAGCGACTCCGCAGTGAGGGTGCTGCTCCATTCCCCAGGACGGCCCTCCAGCCCTAGGTTCAGCAGTTTGGATCTGGAGGAAGACTCAGAGGTGTTCAAGATGCTGCAGGAGAACCGCCAGGGACGGGCCGCCCCAAGGCAGTCCAGCTCTTTTCGACTCTTACAGGAAGCCTTGGAGGCTGAGGAGAGAGGTGGCACACCTGCCTTTGTGCCCAGCTCGCTGAGCTCCCAGGCTTCCTTGCCCACCTCCAGGGCCTTGGCCACTCCACCCAAGCTCCACACCTGTGAGAAATGCAGCGTCAACATCTCGAACCAGGCGGTCCGCATCCAGGAGGGGAGGTACCGACACCCTGGCTGCTACACTTGCGCAGACTGTGGGCTGAACCTGAAGATGCGCGGCCACTTCTGGGTGGGCAATGAGTTGTACTGCGAGAAGCATGCCCGCCAGCGCTACTCTATGCCTGGAACTCTCAACTCTCGAGCCACTAGTAA
# B4: 46 (nucleic acid, listed as Mus musculus)
# chain: AATCTAGAATGGTGTCCACTAGCATCCCGGAGGTTAAAGCTCTCCGCAGCTCAGTCTCTGACTATGGGAACTATGATATCATAGTCCGGCATTACAACTACACAGGCAAGTTGAACATCGGGGCGGAGAAGGACCATGGCATTAAACTGACTTCAGTGGTGTTCATTCTCATCTGCTGCTTCATCATCCTAGAGAATATATTTGTCTTGCTAACTATTTGGAAAACCAAGAAGTTCCACCGGCCCATGTACTATTTCATAGGCAACCTAGCCCTCTCGGACCTATTAGCAGGCGTGGCTTACACAGCTAACCTGCTGTTGTCTGGGGCCACCACTTACAAGCTCACACCTGCCCAGTGGTTTCTGCGGGAAGGGAGTATGTTTGTGGCTCTCTCTGCATCAGTCTTCAGCCTCCTTGCCATCGCCATTGAGCGCTACATCACCATGCTGAAGATGAAACTACACAACGGGAGCAACAGCTCGCGCTCCTTTCTGCTGATCAGCGCCTGCTGGGTCATCTCCCTCATCCTGGGGGGCCTGCCCATCATGGGCTGGAACTGCATCAGCTCGCTGTCTAGCTGCTCCACCGTGCTCCCGCTCTACCACAAGCACTATATTCTCTTCTGCACCACCGTCTTCACTCTGCTCCTGCTTTCCATCGTCATCCTCTACTGCAGGATCTACTCCTTGGTCAGGACTCGAAGCCGCCGCCTGACCTTCCGCAAGAACATCTCCAAGGCCAGTCGCAGTTCTGAGAAGTCTCTGGCCTTGCTGAAGACGGTGATCATTGTCTTGAGTGTCTTCATTGCCTGCTGGGCCCCTCTCTTCATCCTACTACTGTTAGATGTGGGCTGCAAGGCGAAGACCTGTGACATCCTGTACAAAGCAGAGTACTTCCTGGTTCTGGCTGTGCTGAACTCAGGTACCAACCCCATCATCTACACTCTGACCAACAAGGAGATGCGCCGGGCCTTCATCCGGATCGTATCTTGTTGCAAATGCCCCAACGGAGACTCTGCTGGCAAATTCAAGAGGCCCATCATCCCAGGCATGGAATTTAGCCGCAGCAAATCAGACAACTCCTCTCACCCCCAGAAGGACGATGGGGACAACCCAGAGACCATTATGTCGTCTGGAAACGTCAATTCTTCTTCCACTAGTAA
# What was measured:
# [1] = test system: pluripotent cells C3H10T1/2, ST2 and C2C12; test: Wnt-frizzled pathway and osteoblast differentiation, alkaline phosphatase measurement in pluripotent cells; format: cell-based, mouse; conditions: for effect on BMP-2: C3H10T1/2 cells; for effect on the activity of Wnt proteins (Wnt1, Wnt2, Wnt3a), alkaline phosphatase measurement: C3H10T1/2
# From the text: FIGS. 1 to 7 represents the relationship between members of the Wnt-frizzled family, with bone formation, by measurement of alkaline phosphatase (ALP).
# The inventors have also tested the capacity of Fz1 to interact with Wnt proteins and thus affect osteoblast differentiation. Overexpression of Fz1 decreased the activity of Wnt1, Wnt2 and Wnt3a in pluripotent cells C3H10T1/2 as determined by the alkaline phosphatase measurement (FIG. 4). However the expression of Fz3 or Fz4 increased the activity of Wnt proteins in the differentiation process (FIG. 6). […] This indicate that Frizzled may negatively or positively cooperate with their ligand proteins, Wnt, in these bone-related cells.
# (§1) Mouse cell lines representing different stages of osteoblastic differentiation, C2C12, C2H10T1/2, ST2 and MC3T3-E1, were grown in the presence of agents capable of the induction of osteoblastic differentiation in vitro such as BMP2 and Sonic Hedgehog or in the presence of TGF beta (negative control) or with serum alone. Primary cells derived from mouse calvaria were also cultured for 0, 2, 7 14 and 21 days and RNA prepared for each time point. For example, C3H10T ½ and C2C12 can be obtained from the ATCC (Manassas, Va., USA) under the collection numbers CCL-226 and CRL-1772, respectively.
# C3H10T1/2 cells = test: Transient over-expression of candidate genes, cooperation with BMP2 by measurement of alkaline phosphatase; format: cell-based, mouse; design: key: +: positive or negative cooperation with BMP2; −: positive or negative cooperation with BMP2; conditions: for Validation in vitro (coop over BMP2) C3H10T1/2: alkaline phosphatase; for Validation in C2H10T1/2 (coop over BMP2): alkaline phosphatase at 48 hours
# Method: as §1
# The candidates genes are cloned in expression vectors and their ability to express a protein of the expected size verified by COS cells transient transfection. The genes are then transfected in C3H10T1/2 cells and/or C2C12 cells (transient over-expression) and positive or negative cooperation with BMP2 is evaluated by the measurement of alkaline phosphatase (enzymatic assay and TaqMan) at 48 hours. Controls of positive cooperation, recombinant Sonic Hedgehog, or negative cooperation, recombinant Noggin, are included in each test.
molecule,measurement,setting,value
"TCF4: TCF protein, transcription factor of the Wnt pathway",effect on BMP-2,[1],inhibitors
"SEQ ID No 37: candidate gene, receptor tyrosine kinase Ufo/Ax1, overexpressed in cells",BMP2 induced Alkaline phosphatase activity,[1]; overexpressed in C2C12 or C3H10T1/2 cells,repress
Wnt3a,production of alkaline phosphatase (osteoblast differentiation),"[1]; overexpression, C3H10T1/2, ST2 and C2C12",increases
"TCF3: TCF protein, transcription factor of the Wnt pathway",effect on BMP-2,[1],inhibitors
Fz4: frizzled receptor expressed in C3H10T1/2 cells,"effect on the activity of Wnt proteins (Wnt1, Wnt2, Wnt3a), alkaline phosphatase measurement",[1]; overexpression,increased
Fz3: frizzled receptor expressed in C3H10T1/2 cells,"effect on the activity of Wnt proteins (Wnt1, Wnt2, Wnt3a), alkaline phosphatase measurement",[1]; overexpression,increased
"O=c1cc(-c2ccc(O)cc2)oc2cc(O)cc(O)c12 [Apigenin, reference compound]",activity of BMP-2 and Shh,"[1]; C3H10T1/2, ST2 and C2C12",able to block
B1,Validation in vitro (coop over BMP2) C3H10T1/2,C3H10T1/2 cells,+
same,Validation in C2H10T1/2 (coop over BMP2),C3H10T1/2 cells,+ coop over BMP2
B2,Validation in vitro (coop over BMP2) C3H10T1/2,C3H10T1/2 cells,−
B3,Validation in vitro (coop over BMP2) C3H10T1/2,C3H10T1/2 cells,−
B4,Validation in vitro (coop over BMP2) C3H10T1/2,C3H10T1/2 cells,+
same,Validation in C2H10T1/2 (coop over BMP2),C3H10T1/2 cells,+ coop over BMP2
